# Measurements from US20210353593A1 (Chinook Therapeutics, Inc., priority 2019, published 2021).
# Experiments:
# [1] = system: IL-6 production in primary human mesangial cells; assay: ET-1 induced IL-6 production (ELISA) in primary human renal mesangial cells; format: cell-based; conditions: 72 hours; 10 ng/mL ET-1; read-out: IC50, ET-1 stimulated IL-6 production in HRMCs
# [2] = system: canonical signaling pathways in kidney tissue of g-ddY mice; assay: Ingenuity Pathway Analysis (IPA) canonical pathways, g-ddY mouse kidney RNA-seq; format: in vivo
smiles,measurement,setting,value
"CCCCN(CCCC)C(=O)CN1C[C@H](c2ccc3c(c2)OCO3)[C@@H](C(=O)O)[C@@H]1c1ccc(OC)cc1 [Atrasentan, (2R,3R,4S)-4-(1,3-benzodioxol-5-yl)-1-[2-(dibutylamino)-2-oxoethyl]-2-(4-methoxyphenyl)pyrrolidine-3-carboxylic acid]",IC50,[1],0.65 nM
same,Acute Myeloid Leukemia Signaling z-score,[2]; 10 mg/kg/day,−0.258
same,Acute Phase Response Signaling z-score,[2]; 10 mg/kg/day,−1.177
same,Apelin Cardiac Fibroblast Signaling Pathway z-score,[2]; 10 mg/kg/day,1.134
same,CXCR4 Signaling z-score,[2]; 10 mg/kg/day,0
same,Cardiac Hypertrophy Signaling (Enhanced) z-score,[2]; 10 mg/kg/day,0.361
same,Folate Polyglutamylation z-score,[2]; 10 mg/kg/day,−1
same,GM-CSF Signaling z-score,[2]; 10 mg/kg/day,−0.243
same,GP6 Signaling Pathway z-score,[2]; 10 mg/kg/day,0
same,Glioblastoma Multiforme Signaling z-score,[2]; 10 mg/kg/day,1
same,Glioma Signaling z-score,[2]; 10 mg/kg/day,0.5
same,Gluconeogenesis I z-score,[2]; 10 mg/kg/day,0.905
same,Glutathione Redox Reactions I z-score,[2]; 10 mg/kg/day,−0.302
same,Glycolysis I z-score,[2]; 10 mg/kg/day,0.577
same,Gα12/13 Signaling z-score,[2]; 10 mg/kg/day,−1.279
same,Gαg Signaling z-score,[2]; 10 mg/kg/day,1
same,HGF Signaling z-score,[2]; 10 mg/kg/day,−0.688
same,Hepatic Fibrosis Signaling Pathway z-score,[2]; 10 mg/kg/day,−0.25
same,IGF-1 Signaling z-score,[2]; 10 mg/kg/day,0.243
same,IL-8 Signaling z-score,[2]; 10 mg/kg/day,0.365
same,Integrin Signaling z-score,[2]; 10 mg/kg/day,−0.928
same,LPS/IL-1 Mediated Inhibition of RXR Function z-score,[2]; 10 mg/kg/day,0.535
same,Lymphotoxin β Receptor Signaling z-score,[2]; 10 mg/kg/day,−1.508
same,Macropinocytosis Signaling z-score,[2]; 10 mg/kg/day,0.277
same,NF-κB Activation by Viruses z-score,[2]; 10 mg/kg/day,0
same,NF-κB Signaling z-score,[2]; 10 mg/kg/day,0.507
same,NRF2-mediated Oxidative Stress Response z-score,[2]; 10 mg/kg/day,0.471
same,Oxidative Phosphorylation z-score,[2]; 10 mg/kg/day,−0.309
same,PDGF Signaling z-score,[2]; 10 mg/kg/day,−0.5
same,PEDF Signaling z-score,[2]; 10 mg/kg/day,0
same,PI3K Signaling in B Lymphocytes z-score,[2]; 10 mg/kg/day,0.426
same,PI3K/AKT Signaling z-score,[2]; 10 mg/kg/day,0.447
same,PTEN Signaling z-score,[2]; 10 mg/kg/day,−0.426
same,Paxillin Signaling z-score,[2]; 10 mg/kg/day,−1
same,Relaxin Signaling z-score,[2]; 10 mg/kg/day,−0.535
same,STAT3 Pathway z-score,[2]; 10 mg/kg/day,−0.218
same,Sirtuin Signaling Pathway z-score,[2]; 10 mg/kg/day,0.849
same,Small Cell Lung Cancer Signaling z-score,[2]; 10 mg/kg/day,−0.905
same,Sperm Motility z-score,[2]; 10 mg/kg/day,1.213
same,Sphingosine-1-phosphate Signaling z-score,[2]; 10 mg/kg/day,−0.218
same,TCA Cycle II (Eukalyotic) z-score,[2]; 10 mg/kg/day,0.277
same,TNFR2 Signaling z-score,[2]; 10 mg/kg/day,−1.89
same,Thrombin Signaling z-score,[2]; 10 mg/kg/day,1.3
same,Toll-like Receptor Signaling z-score,[2]; 10 mg/kg/day,−0.302
same,Tryptophan Degradation III (Eukalyotic) z-score,[2]; 10 mg/kg/day,0.378
same,Xenobiotic Metabolism General Signaling Pathway z-score,[2]; 10 mg/kg/day,−0.577
same,Acute Myeloid Leukemia Signaling z-score,[2]; 20 mg/kg/day,−0.853
same,Acute Phase Response Signaling z-score,[2]; 20 mg/kg/day,−1.298
same,Apelin Cardiac Fibroblast Signaling Pathway z-score,[2]; 20 mg/kg/day,0.577
same,CXCR4 Signaling z-score,[2]; 20 mg/kg/day,0.333
same,Cardiac Hypertrophy Signaling (Enhanced) z-score,[2]; 20 mg/kg/day,−0.396
same,Folate Polyglutamylation z-score,[2]; 20 mg/kg/day,0.447
same,GM-CSF Signaling z-score,[2]; 20 mg/kg/day,−1.46
same,GP6 Signaling Pathway z-score,[2]; 20 mg/kg/day,−1.715
same,Glioblastoma Multiforme Signaling z-score,[2]; 20 mg/kg/day,−0.16
same,Glioma Signaling z-score,[2]; 20 mg/kg/day,−0.816
same,Gluconeogenesis I z-score,[2]; 20 mg/kg/day,−0.302
same,Glutathione Redox Reactions I z-score,[2]; 20 mg/kg/day,−0.277
same,Glycolysis I z-score,[2]; 20 mg/kg/day,0
same,Gα12/13 Signaling z-score,[2]; 20 mg/kg/day,−0.707
same,Gαg Signaling z-score,[2]; 20 mg/kg/day,−0.822
same,HGF Signaling z-score,[2]; 20 mg/kg/day,0
same,Hepatic Fibrosis Signaling Pathway z-score,[2]; 20 mg/kg/day,−3.181
same,IGF-1 Signaling z-score,[2]; 20 mg/kg/day,−0.408
same,IL-8 Signaling z-score,[2]; 20 mg/kg/day,−0.905
same,Integrin Signaling z-score,[2]; 20 mg/kg/day,−1.342
same,LPS/IL-1 Mediated Inhibition of RXR Function z-score,[2]; 20 mg/kg/day,0.626
same,Lymphotoxin β Receptor Signaling z-score,[2]; 20 mg/kg/day,−1.291
same,Macropinocytosis Signaling z-score,[2]; 20 mg/kg/day,0.243
same,NF-κB Activation by Viruses z-score,[2]; 20 mg/kg/day,−0.816
same,NF-κB Signaling z-score,[2]; 20 mg/kg/day,−1.313
same,NRF2-mediated Oxidative Stress Response z-score,[2]; 20 mg/kg/day,−0.392
same,Oxidative Phosphorylation z-score,[2]; 20 mg/kg/day,−0.283
same,PDGF Signaling z-score,[2]; 20 mg/kg/day,−2.353
same,PEDF Signaling z-score,[2]; 20 mg/kg/day,−1.043
same,PI3K Signaling in B Lymphocytes z-score,[2]; 20 mg/kg/day,−1.333
same,PI3K/AKT Signaling z-score,[2]; 20 mg/kg/day,−0.18
same,PTEN Signaling z-score,[2]; 20 mg/kg/day,1.029
same,Paxillin Signaling z-score,[2]; 20 mg/kg/day,−0.626
same,Relaxin Signaling z-score,[2]; 20 mg/kg/day,−0.853
same,STAT3 Pathway z-score,[2]; 20 mg/kg/day,0.192
same,Sirtuin Signaling Pathway z-score,[2]; 20 mg/kg/day,0.62
same,Small Cell Lung Cancer Signaling z-score,[2]; 20 mg/kg/day,−1.886
same,Sperm Motility z-score,[2]; 20 mg/kg/day,1.633
same,Sphingosine-1-phosphate Signaling z-score,[2]; 20 mg/kg/day,−0.73
same,TCA Cycle II (Eukalyotic) z-score,[2]; 20 mg/kg/day,−0.535
same,TNFR2 Signaling z-score,[2]; 20 mg/kg/day,0
same,Thrombin Signaling z-score,[2]; 20 mg/kg/day,−0.926
same,Toll-like Receptor Signaling z-score,[2]; 20 mg/kg/day,−0.258
same,Tryptophan Degradation III (Eukalyotic) z-score,[2]; 20 mg/kg/day,−1.265
same,Xenobiotic Metabolism General Signaling Pathway z-score,[2]; 20 mg/kg/day,−1.581
same,Acute Myeloid Leukemia Signaling z-score,[2]; 30 mg/kg/day,−1.134
same,Acute Phase Response Signaling z-score,[2]; 30 mg/kg/day,−2.832
same,Apelin Cardiac Fibroblast Signaling Pathway z-score,[2]; 30 mg/kg/day,1.732
same,CXCR4 Signaling z-score,[2]; 30 mg/kg/day,−2.214
same,Cardiac Hypertrophy Signaling (Enhanced) z-score,[2]; 30 mg/kg/day,−6.236
same,Folate Polyglutamylation z-score,[2]; 30 mg/kg/day,1.342
same,GM-CSF Signaling z-score,[2]; 30 mg/kg/day,−1.225
same,GP6 Signaling Pathway z-score,[2]; 30 mg/kg/day,−4.938
same,Glioblastoma Multiforme Signaling z-score,[2]; 30 mg/kg/day,−3.464
same,Glioma Signaling z-score,[2]; 30 mg/kg/day,−2.353
same,Gluconeogenesis I z-score,[2]; 30 mg/kg/day,3.464
same,Glutathione Redox Reactions I z-score,[2]; 30 mg/kg/day,2.496
same,Glycolysis I z-score,[2]; 30 mg/kg/day,3.051
same,Gα12/13 Signaling z-score,[2]; 30 mg/kg/day,−0.949
same,Gαg Signaling z-score,[2]; 30 mg/kg/day,−2.16
same,HGF Signaling z-score,[2]; 30 mg/kg/day,−3.182
same,Hepatic Fibrosis Signaling Pathway z-score,[2]; 30 mg/kg/day,−5.058
same,IGF-1 Signaling z-score,[2]; 30 mg/kg/day,−1.633
same,IL-6 signaling,[2]; 30 mg/kg/day,reduced
same,IL-8 Signaling z-score,[2]; 30 mg/kg/day,−2.828
same,Integrin Signaling z-score,[2]; 30 mg/kg/day,−3.311
same,LPS/IL-1 Mediated Inhibition of RXR Function z-score,[2]; 30 mg/kg/day,−2.746
same,Lymphotoxin β Receptor Signaling z-score,[2]; 30 mg/kg/day,−2.183
same,Macropinocytosis Signaling z-score,[2]; 30 mg/kg/day,−2.828
same,NF-κB Activation by Viruses z-score,[2]; 30 mg/kg/day,−3.9
same,NF-κB Signaling z-score,[2]; 30 mg/kg/day,−4.636
same,NF-κB signaling,[2]; 30 mg/kg/day,reduced
same,NRF2-mediated Oxidative Stress Response z-score,[2]; 30 mg/kg/day,1.3
same,Oxidative Phosphorylation z-score,[2]; 30 mg/kg/day,7.02
same,PDGF Signaling z-score,[2]; 30 mg/kg/day,−3.528
same,PDGF signaling,[2]; 30 mg/kg/day,reduced
same,PEDF Signaling z-score,[2]; 30 mg/kg/day,−3.922
same,PI3K Signaling in B Lymphocytes z-score,[2]; 30 mg/kg/day,−4.041
same,PI3K/AKT Signaling z-score,[2]; 30 mg/kg/day,−1.947
same,PTEN Signaling z-score,[2]; 30 mg/kg/day,2.214
same,Paxillin Signaling z-score,[2]; 30 mg/kg/day,−2.268
same,Relaxin Signaling z-score,[2]; 30 mg/kg/day,−2.449
same,STAT3 Pathway z-score,[2]; 30 mg/kg/day,−2.556
same,Sirtuin Signaling Pathway z-score,[2]; 30 mg/kg/day,−1.254
same,Small Cell Lung Cancer Signaling z-score,[2]; 30 mg/kg/day,−2.236
same,Sperm Motility z-score,[2]; 30 mg/kg/day,−2.263
same,Sphingosine-1-phosphate Signaling z-score,[2]; 30 mg/kg/day,−1.808
same,TCA Cycle II (Eukalyotic) z-score,[2]; 30 mg/kg/day,3.207
same,TNFR2 Signaling z-score,[2]; 30 mg/kg/day,−1.291
same,Thrombin Signaling z-score,[2]; 30 mg/kg/day,−2.828
same,Toll-like Receptor Signaling z-score,[2]; 30 mg/kg/day,−2.982
same,Tryptophan Degradation III (Eukalyotic) z-score,[2]; 30 mg/kg/day,3.742
same,Xenobiotic Metabolism General Signaling Pathway z-score,[2]; 30 mg/kg/day,−0.152
